# Patent US6384254B1, “Quaternary ammonium salt-containing polysiloxane, making method, and fiber or fabric treating agent composition” (Shin-Etsu Chemical Co., Ltd., priority 1999, dated 2002)
# System: stephelococcus Aureus
# Experiment: percentage loss of bacteria on treated cloth after ten launderings, shaking flask method
# Format: cell-based
# Settings: polyester/cotton (65%/35%) cloth dipped in treating bath (2.0 wt% silicone solids; CE1 3.5 wt% solids), laundered ten times by 103 method of JIS L-0217
# Method: The emulsion was diluted to an aqueous solution having a silicone solid concentration of 2.0% by weight. A polyester/cotton (65%/35%) mixed broad-cloth was dipped in the solution for one minute, nipped through rolls at a nip rate of 100%, dried at 135° C. for one minute and heat treated at 165° C. for 2 minutes. The thus treated cloth was laundered ten times in accordance with the 103 method of JIS L-0217 whereupon a percentage loss of stephelococcus Aureus was compared by the shaking flask method. The texture of the treated cloth was examined by finger touch before and after washing.
# For comparison purpose, using a 38% solids methanol solution of 3-(trimethoxysilyl)propyldimethyloctadecylammonium chloride, a 3.5 wt% solids aqueous solution was prepared. A similar experiment was carried out. This is Comparative Example 1.
smiles,measurement,value
"CCCCCCCCCCCCCCCCCC[N+](C)(C)CCC[Si](OC)(OC)OC.[Cl-] [CE1, 3-(trimethoxysilyl)propyldimethyloctadecylammonium chloride]",Bacteria loss after washing (%),35%
